Data as given in ChEMBL document CHEMBL1201862, “PubChem BioAssay data set” (2004).
Active and inactive are the calls of the source.

Key:
[1] = Luminescence-based counterscreen assay for KLF5 inhibitors: dose response cell-based high throughput screening assay to identify cytotoxic compounds using the IEC-6 intestinal epithelial cell line. [Related pubchem assays: 1700 (Primary screen.), 1834 (Confirmation screen.), 1858 (Summary AID.), 1905 (Counterscreen.)]; assay type: functional
cells [2] = assay type: functional, cell-based
cells [3] = experiment: cells
[4] = target: T1, Nuclear receptor subfamily 0 group B member 1 (Homo sapiens, UniProt P51843); assay type: functional, cell-based;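 further: HEK293T cells transfected with SF-1 and DAX-1 plus StAR promoter luciferase reporter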
T1 sequence (P51843 whole entry): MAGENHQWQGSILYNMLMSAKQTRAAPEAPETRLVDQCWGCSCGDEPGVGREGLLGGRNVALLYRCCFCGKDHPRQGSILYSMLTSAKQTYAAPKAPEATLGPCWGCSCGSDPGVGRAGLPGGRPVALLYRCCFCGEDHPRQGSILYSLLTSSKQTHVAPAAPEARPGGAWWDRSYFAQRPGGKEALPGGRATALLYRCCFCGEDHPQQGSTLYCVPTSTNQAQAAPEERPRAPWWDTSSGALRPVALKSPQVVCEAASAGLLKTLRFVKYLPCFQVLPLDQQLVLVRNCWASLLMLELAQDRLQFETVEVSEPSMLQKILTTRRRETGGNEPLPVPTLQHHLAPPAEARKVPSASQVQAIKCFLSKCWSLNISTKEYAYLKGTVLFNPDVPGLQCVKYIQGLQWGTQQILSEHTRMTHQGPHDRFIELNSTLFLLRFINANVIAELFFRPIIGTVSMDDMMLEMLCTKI

[5] = target: T2, Oxysterols receptor LXR-beta (Homo sapiens, UniProt P55055); assay type: functional, cell-based;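 further: Cell-based luminescence dose-response assay of agonist activity at LXR, run as a confirmatory counterscreen to a daf-12 agonist screen; HEK293 cells with Gal4-LXR fusion and GAL4-driven luciferase reporter; agonist potency from rising luciferase signal of a Gal4-LXR reporter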
T2 sequence (P55055 whole entry): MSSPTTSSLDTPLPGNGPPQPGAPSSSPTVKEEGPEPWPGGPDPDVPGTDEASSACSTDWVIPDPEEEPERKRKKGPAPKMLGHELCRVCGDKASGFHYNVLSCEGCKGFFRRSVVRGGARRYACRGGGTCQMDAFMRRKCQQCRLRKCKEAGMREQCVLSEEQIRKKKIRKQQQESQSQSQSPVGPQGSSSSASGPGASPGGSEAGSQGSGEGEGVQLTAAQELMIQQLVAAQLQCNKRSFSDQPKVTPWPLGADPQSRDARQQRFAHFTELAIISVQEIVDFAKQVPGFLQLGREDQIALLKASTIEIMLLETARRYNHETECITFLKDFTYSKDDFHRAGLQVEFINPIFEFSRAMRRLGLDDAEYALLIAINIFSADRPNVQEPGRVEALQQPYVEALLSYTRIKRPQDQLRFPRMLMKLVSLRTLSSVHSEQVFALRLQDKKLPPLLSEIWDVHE

[6] = target: Eukaryotic translation initiation factor 4E (Mus musculus, UniProt P63073); experiment: eIF4E–eIF4G protein interaction inhibitors, dose response, biochemical, TR-FRET (AID 855); assay type: functional;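 further: potency for disrupting eIF4E binding to eIF4GI seen as loss of FRET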
Caspase-7 = target: T3, Caspase-7 (Homo sapiens, UniProt P55210); experiment: procaspase-7 activators, dose response, dual procaspase-3/-7 activator project, biochemical, absorbance, human (AID 504330)
T3 sequence (P55210 whole entry): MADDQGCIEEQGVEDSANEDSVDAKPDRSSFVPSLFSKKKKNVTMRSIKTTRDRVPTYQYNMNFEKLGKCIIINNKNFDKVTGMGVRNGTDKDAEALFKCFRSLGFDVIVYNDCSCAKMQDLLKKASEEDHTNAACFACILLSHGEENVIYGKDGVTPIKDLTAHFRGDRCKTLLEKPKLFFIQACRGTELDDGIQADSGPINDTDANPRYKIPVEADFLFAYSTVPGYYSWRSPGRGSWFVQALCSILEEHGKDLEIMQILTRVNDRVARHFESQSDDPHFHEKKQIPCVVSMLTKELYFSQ

Caspase-3 = target: T4, Caspase-3 (Homo sapiens, UniProt P42574); experiment: procaspase-3 activation potency of dual hits, dose response, counter-screen for dual procaspase-3/7 activator project, biochemical, absorbance, PC-3 D3A mutant (AID 504328)
T4 sequence (P42574 whole entry): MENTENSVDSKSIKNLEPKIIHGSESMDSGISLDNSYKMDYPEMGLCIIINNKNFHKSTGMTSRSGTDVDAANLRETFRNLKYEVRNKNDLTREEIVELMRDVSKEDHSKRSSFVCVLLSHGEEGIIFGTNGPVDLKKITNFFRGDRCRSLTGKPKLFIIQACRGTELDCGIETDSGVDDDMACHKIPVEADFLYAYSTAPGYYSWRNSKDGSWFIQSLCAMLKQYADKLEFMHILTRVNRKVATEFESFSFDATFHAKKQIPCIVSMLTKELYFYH

[7] = A cytotoxicity screen of small molecule inhibitors of the PhoP region in Salmonella typhi identified in the primary screen. [Related pubchem assays: 1850, 1864, 1985 ]; assay type: functional
X-box-binding protein 1 = X-box-binding protein 1 (Homo sapiens, UniProt P17861); assay type: functional, Cricetulus griseus;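 further: confirmatory dose-response counter-screen serving a CHOP assay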
Mu-type opioid receptor = Mu-type opioid receptor (Homo sapiens, UniProt P35372); experiment: (§1) Counterscreen for agonists of heterodimerization of the mu 1 (OPRM1) and delta 1 (OPRD1) opioid receptors: Luminescence-based cell-based high throughput dose response assay to identify agonists of OPRM1 homodimerization.; assay type: functional
[8] = target: Delta-type opioid receptor (Homo sapiens, UniProt P41143); experiment: as §1, with “of OPRD1” for “of OPRM1”, “homodimerization. [Related pubchem assays (depositor defined):AID504326, AID504355, AID504692, AID504904, AID504905]” for “homodimerization.”; assay type: functional
[9] = target: 5-hydroxytryptamine receptor 5A (Homo sapiens, UniProt P47898); experiment: Counterscreen for agonists of OPRM1-OPRD1 heterodimerization: luminescence-based cell-based high throughput dose response assay to identify agonists of 5-hydroxytryptamine (serotonin) 5A receptor (HTR5A). [Related pubchem assays (depositor defined):AID504326, AID504355, AID504692, AID504904, AID504905]; assay type: functional
[10] = target: T5, Neuropeptides B/W receptor type 1 (Homo sapiens, UniProt P48145); experiment: GPR7 antagonist potency, late-stage follow-up, cell-based, fluorescence, dose response (AID 463251); assay type: functional
T5 sequence (P48145 whole entry): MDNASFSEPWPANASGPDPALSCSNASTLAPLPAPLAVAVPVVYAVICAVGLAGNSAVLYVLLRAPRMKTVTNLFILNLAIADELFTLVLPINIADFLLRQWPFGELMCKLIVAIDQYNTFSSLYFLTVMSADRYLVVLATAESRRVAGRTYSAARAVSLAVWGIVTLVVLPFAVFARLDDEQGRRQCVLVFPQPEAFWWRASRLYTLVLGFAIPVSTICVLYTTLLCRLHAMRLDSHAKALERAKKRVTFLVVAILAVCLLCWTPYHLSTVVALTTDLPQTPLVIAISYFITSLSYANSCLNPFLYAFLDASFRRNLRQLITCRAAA

[11] = target: Melanin-concentrating hormone receptor 1 (Homo sapiens, UniProt Q99705); experiment: Late-stage fluorescence-based counterscreen for antagonists of the G-protein coupled receptor 7 (GPR7): cell-based dose response assay to identify antagonists of the melanin-concentrating hormone receptor 1 (MCHR1). [Related pubchem assays (depositor defined):AID1861, AID1880, AID1952, AID2148, AID2251, AID2257, AID485339]; assay type: functional;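 further: stimulated with 30 nM MCH peptide agonist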
BJ [12] = experiment: cytotoxicity toward BJ-TERT-LT-ST fibroblasts, dose response, cell-based, RAS-independent, luminescence (AID 1935); assay type: functional; conditions: Homo sapiens;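 further: BJ fibroblasts immortalized with TERT plus LT and ST oncogenes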
BJ [13] = experiment: cells; assay type: functional, cell-based; conditions: Homo sapiens
[14] = cytotoxicity toward DRD oncogenic fibroblasts, dose response, cell-based, non-viral oncogenic, luminescence (AID 1934); assay type: functional; conditions: Homo sapiens
[15] = target: Luciferin 4-monooxygenase (Photinus pyralis, UniProt P08659); experiment: firefly luciferase enzyme inhibitors, dose response, biochemical, luminescence (AID 1891)
[16] = Luminescence Cell-Based Dose Confirmation HTS to Identify Inhibitors of Platelet Dense Granule Release. [Related pubchem assays: 1663 (Primary HTS), 1678 (Summary of Project)]; assay type: functional
BJ [17] = experiment: cytotoxicity toward BJ-TERT fibroblasts, dose response, cell-based, RAS-independent, luminescence (AID 1933); assay type: functional; conditions: Homo sapiens
[18] = target: Glyceraldehyde-3-phosphate dehydrogenase (Homo sapiens, UniProt P04406)
Chain of Glyceraldehyde-3-phosphate dehydrogenase (P04406 whole entry): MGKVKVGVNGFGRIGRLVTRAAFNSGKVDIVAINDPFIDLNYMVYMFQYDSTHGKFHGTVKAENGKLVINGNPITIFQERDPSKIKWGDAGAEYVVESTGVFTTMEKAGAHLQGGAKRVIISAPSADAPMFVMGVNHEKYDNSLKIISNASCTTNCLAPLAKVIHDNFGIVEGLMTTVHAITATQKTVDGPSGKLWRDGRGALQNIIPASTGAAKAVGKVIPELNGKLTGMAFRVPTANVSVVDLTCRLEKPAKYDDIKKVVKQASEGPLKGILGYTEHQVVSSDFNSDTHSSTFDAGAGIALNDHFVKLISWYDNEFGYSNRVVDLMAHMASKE

Chain of Melanin-concentrating hormone receptor 1 (Q99705 whole entry): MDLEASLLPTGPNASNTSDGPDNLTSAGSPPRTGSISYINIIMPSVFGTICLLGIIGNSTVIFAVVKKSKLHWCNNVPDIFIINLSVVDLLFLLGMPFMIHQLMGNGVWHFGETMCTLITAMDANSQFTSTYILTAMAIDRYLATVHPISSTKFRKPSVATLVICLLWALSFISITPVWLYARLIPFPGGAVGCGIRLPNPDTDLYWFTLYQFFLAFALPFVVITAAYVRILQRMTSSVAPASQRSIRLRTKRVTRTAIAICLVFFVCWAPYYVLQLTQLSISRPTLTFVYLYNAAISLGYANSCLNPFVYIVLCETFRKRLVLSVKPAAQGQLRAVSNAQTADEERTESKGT
Chain of Eukaryotic translation initiation factor 4E (P63073 whole entry): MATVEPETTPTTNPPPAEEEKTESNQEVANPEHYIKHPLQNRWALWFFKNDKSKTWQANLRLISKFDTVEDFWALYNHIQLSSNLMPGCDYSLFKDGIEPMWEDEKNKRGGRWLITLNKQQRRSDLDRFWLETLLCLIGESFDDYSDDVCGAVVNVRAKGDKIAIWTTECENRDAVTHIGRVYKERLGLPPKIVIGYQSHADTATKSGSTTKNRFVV
Chain of Mu-type opioid receptor (P35372 whole entry): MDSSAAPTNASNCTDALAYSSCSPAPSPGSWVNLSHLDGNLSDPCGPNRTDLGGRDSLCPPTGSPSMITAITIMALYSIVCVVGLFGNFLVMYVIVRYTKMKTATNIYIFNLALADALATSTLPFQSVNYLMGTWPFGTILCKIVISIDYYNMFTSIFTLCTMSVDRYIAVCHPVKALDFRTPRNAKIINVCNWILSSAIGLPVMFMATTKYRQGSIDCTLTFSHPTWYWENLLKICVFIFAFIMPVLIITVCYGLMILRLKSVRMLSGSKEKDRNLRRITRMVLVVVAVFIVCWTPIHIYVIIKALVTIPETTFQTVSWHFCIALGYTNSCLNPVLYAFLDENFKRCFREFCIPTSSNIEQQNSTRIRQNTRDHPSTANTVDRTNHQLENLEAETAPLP
Chain of Delta-type opioid receptor (P41143 whole entry): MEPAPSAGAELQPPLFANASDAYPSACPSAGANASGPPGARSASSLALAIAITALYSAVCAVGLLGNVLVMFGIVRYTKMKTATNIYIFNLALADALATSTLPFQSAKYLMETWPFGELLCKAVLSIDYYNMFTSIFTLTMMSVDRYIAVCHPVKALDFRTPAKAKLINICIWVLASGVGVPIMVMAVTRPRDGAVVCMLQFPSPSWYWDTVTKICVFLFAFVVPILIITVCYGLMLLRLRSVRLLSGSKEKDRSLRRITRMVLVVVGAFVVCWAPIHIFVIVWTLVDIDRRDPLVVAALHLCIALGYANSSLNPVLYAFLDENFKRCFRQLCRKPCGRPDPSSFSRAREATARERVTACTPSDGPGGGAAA
Chain of Luciferin 4-monooxygenase (P08659 whole entry): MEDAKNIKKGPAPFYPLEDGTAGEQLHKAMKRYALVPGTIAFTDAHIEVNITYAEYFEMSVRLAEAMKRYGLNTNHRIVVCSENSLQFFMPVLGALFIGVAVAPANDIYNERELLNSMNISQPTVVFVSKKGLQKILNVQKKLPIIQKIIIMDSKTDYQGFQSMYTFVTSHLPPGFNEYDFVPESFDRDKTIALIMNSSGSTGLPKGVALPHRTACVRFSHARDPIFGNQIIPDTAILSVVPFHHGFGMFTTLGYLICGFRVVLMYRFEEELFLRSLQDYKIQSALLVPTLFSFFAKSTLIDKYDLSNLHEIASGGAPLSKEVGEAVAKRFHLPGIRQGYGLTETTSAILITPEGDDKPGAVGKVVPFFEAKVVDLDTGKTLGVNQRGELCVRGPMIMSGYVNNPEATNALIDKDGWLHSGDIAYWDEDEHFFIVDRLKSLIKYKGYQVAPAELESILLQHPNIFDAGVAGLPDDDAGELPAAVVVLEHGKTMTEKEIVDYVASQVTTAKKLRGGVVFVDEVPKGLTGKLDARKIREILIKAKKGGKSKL
Chain of X-box-binding protein 1 (P17861 whole entry): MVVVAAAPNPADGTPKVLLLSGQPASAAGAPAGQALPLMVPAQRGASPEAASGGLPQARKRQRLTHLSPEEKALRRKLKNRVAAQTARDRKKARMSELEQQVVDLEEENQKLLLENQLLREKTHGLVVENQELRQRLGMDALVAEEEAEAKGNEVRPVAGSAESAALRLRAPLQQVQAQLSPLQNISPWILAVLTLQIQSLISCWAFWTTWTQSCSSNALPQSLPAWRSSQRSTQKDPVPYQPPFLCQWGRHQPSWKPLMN
Chain of 5-hydroxytryptamine receptor 5A (P47898 whole entry): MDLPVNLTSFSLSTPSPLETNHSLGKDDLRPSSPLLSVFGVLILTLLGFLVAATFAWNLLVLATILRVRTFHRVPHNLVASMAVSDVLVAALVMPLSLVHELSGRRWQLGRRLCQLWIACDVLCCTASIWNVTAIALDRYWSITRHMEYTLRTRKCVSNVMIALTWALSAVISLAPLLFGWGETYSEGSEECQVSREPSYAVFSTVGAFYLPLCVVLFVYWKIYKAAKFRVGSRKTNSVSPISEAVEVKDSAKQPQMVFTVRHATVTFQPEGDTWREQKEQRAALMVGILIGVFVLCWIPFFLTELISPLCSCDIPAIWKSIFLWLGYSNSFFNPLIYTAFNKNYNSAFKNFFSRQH

SMILES: CCc1ccc(NC(=O)c2cnn3ccccc23)cc1
- IC50 [1]: > 39.8 µM (not active)
- IC50 (cells [2]): > 67.5 µM (inactive)
- EC50 (cells [3]): > 67.5 µM (inactive)
- IC50 [4]: > 0.0926 µM (active)
- EC50 [5]: > 67.5 µM (inactive)

SMILES: CCOc1ccc(-n2c(-c3ccco3)n[nH]c2=S)cc1
- IC50 [6]: > 64 µM (inactive)

SMILES: O=C(Nc1ccc(Cc2ccncc2)cc1)C1CCC(N2C(=O)C3C4C=CC(C5CC45)C3C2=O)CC1 (stereo unspecified)
- EC50 (Caspase-7): > 85.3 µM (inactive)
- EC50 (Caspase-3): > 85.3 µM (inactive)

SMILES: COCCn1c(SCC(=O)Nc2nnc(C)s2)nnc1-c1c[nH]c2ccccc12
- EC50 [7]: > 50 µM (active)

SMILES: COc1cc(C(=O)OC(C)C(=O)NCC2CCCCC2)cc(NC(=O)c2ccco2)c1OC (stereo unspecified)
- Absolute IC50 (XBP1) (X-box-binding protein 1): 10 µM
- EC50 (Mu-type opioid receptor): > 92.5 µM (inactive)
- EC50 [8]: > 92.5 µM (inactive)
- EC50 [9]: > 92.5 µM (inactive)

SMILES: Cc1cc(C)c2nc(N=C(N)NC(=O)c3ccccc3)nc(C)c2c1
- EC50 [7]: > 50 µM (active)

SMILES: O=C(C1CCCCN1Cc1c(F)cccc1Cl)N1CCN(c2ccc([N+](=O)[O-])cc2)CC1 (stereo unspecified)
- IC50 [10]: 3.3 µM (active)
- IC50 [11]: 3.3 µM (active)

SMILES: O=c1c(Oc2ccc(O)cc2)c(Cl)cnn1-c1ccc(F)cc1
- IC50 [10]: 8.7 µM (active)
- IC50 [11]: 8 µM (active)

SMILES: CN(CCO)c1ccc(/C=N/Nc2nncc3ccccc23)cc1
- EC50 (BJ [12]): > 150 µM (not active)
- EC50 (BJ [13]): 10.8 µM (active)
- IC50 [1]: 24.7 µM (not active)
- EC50 [14]: 4.01 µM (active)
- EC50 [15]: 0.67 µM (active)
- EC50 [16]: 0.533 µM (active)
- EC50 (BJ [17]): > 150 µM (not active)

SMILES: CC(C)CNC(=O)c1cc(-c2ccc(Cl)cc2Cl)n[nH]1
- IC50 [18]: > 10 µM (inconclusive)
